In US20250221963A1 (GH RESEARCH IRELAND LIMITED, priority 2022, published 2025):

Columns and labels:
[1] = Pharmacokinetics of 5-MeO-DMT and bufotenine after inhalation; assay type: in vivo, human
Method: Blood samples were obtained at 1; 2; 4; 7; 10; 15; 20; 30; 45 min and 1; 1.5; 2; 3; 4 hours after administration.
PK parameters were generated by algebraic analysis of the concentration versus time plots for each individual. The analysis was carried out using the software Phoenix WinNonlin 6.3.

[2] = test system: Escherichia coli WP2 uvrA pKM101; assay: Bacterial mutation test, Escherichia coli; assay type: cell-based; details: up to 5000 μg/plate, absence and presence of S-9
Method: These conditions included treatments at concentrations up to 5000 μg/plate (the maximum recommended concentration according to current regulatory guidelines), in the absence and in the presence of a rat liver metabolic activation system (S-9).

[3] = test system: patients with treatment-resistant major depressive disorder (TRD); assay: Phase 1/2 clinical trial of inhaled 5-MeO-DMT in TRD; details: for Patients with at least one ADR: Part A
Method: Patients were assigned to different groups. In the context of the present invention, the group who received a single, 12 mg dose and the group who underwent an intra-day individualized dosing regimen (IDR) that allowed for multiple, escalating doses (6 mg, 12 mg and 18 mg) within a single day, driven by the intensity of the patient-reported psychedelic experience are of interest.
The data gathered include the assessment of the treated patients against several scales including the Montgomery Åsberg Depression Rating Scale (MADRS) and the Brief Psychiatric Rating Scale (BPRS).
This trial was designed in two parts. Part A was an open-label, single-arm, single-dose Phase 1 trial with two dose levels (12 mg (n=4) and 18 mg (n=4)). […] The primary endpoint of Part B was to assess the effects on the severity of depression, as assessed by the proportion of patients in remission on day seven after dosing, defined as a MADRS total score of less than or equal to 10.

[4] = 12 mg n=4, 2 hours, baseline 16

COc1ccc2[nH]cc(CCN(C)C)c2c1 [5-MeO-DMT]
Detectability in the plasma ([1]; after 3 hours, 6, 12, 18 mg): no longer detectable
Accumulation upon repeated administration ([1]; repeated within 1 to 4 hours): No accumulation is observed
Induction of mutation [2]: did not induce mutation
MADRS Concentration Difficulties improvement ([3]; 12 mg n=4, 2 hours): 9 points
MADRS Inability to Feel improvement ([3]; 12 mg n=4, 2 hours): 7 points
MADRS Inner Tension improvement ([3]; 12 mg n=4, 2 hours): 11 points
MADRS Lassitude improvement ([3]; 12 mg n=4, 2 hours): 6 points
MADRS Pessimistic Thoughts improvement ([3]; 12 mg n=4, 2 hours): 8 points
MADRS Pessimistic Thoughts percentage improvement ([3]; 12 mg n=4, 2 hours): 50.00%
MADRS Suicidal Thoughts improvement ([3]; 12 mg n=4, 2 hours): 5 points
MADRS Suicidal Thoughts aggregated score ([3]; 12 mg n=4, 2 hours, baseline 8): 3
MADRS Inner Tension aggregated score ([3]; 12 mg n=4, 2 hours, baseline 13): 2
MADRS Concentration Difficulties aggregated score [3, 4]: 7
MADRS Inability to Feel aggregated score [3, 4]: 9
MADRS Lassitude aggregated score [3, 4]: 10
MADRS Pessimistic Thoughts aggregated score [3, 4]: 8
BPRS Anxiety improvement ([3]; 12 mg n=4, 3 hours): 14 points
BPRS Anxiety percentage improvement ([3]; 12 mg n=4, 3 hours): 56.00%
BPRS Blunted Affect improvement ([3]; 12 mg n=4, 3 hours): 3 points
BPRS Emotional Withdrawal improvement ([3]; 12 mg n=4, 3 hours): 2 points
BPRS Guilt Feelings improvement ([3]; 12 mg n=4, 3 hours): 9 points
BPRS Guilt Feelings percentage improvement ([3]; 12 mg n=4, 3 hours): 50.00%
BPRS Tension improvement ([3]; 12 mg n=4, 3 hours): 5 points
BPRS Blunted Affect aggregated score ([3]; 12 mg n=4, 3 hours, baseline 11): 8
BPRS Emotional Withdrawal aggregated score ([3]; 12 mg n=4, 3 hours, baseline 13): 11
BPRS Tension aggregated score ([3]; 12 mg n=4, 3 hours, baseline 14): 9
BPRS Guilt Feelings aggregated score ([3]; 12 mg n=4, 3 hours, baseline 18): 9
BPRS Anxiety aggregated score ([3]; 12 mg n=4, 3 hours, baseline 25): 11
Patients maintaining remission ([3]; Day 7): 7/8
MADRS Concentration Difficulties improvement ([3]; IDR n=8, 2 hours): 19 points
MADRS Inability to Feel improvement ([3]; IDR n=8, 2 hours): 24 points
MADRS Inner Tension improvement ([3]; IDR n=8, 2 hours): 15 points
MADRS Lassitude improvement ([3]; IDR n=8, 2 hours): 17 points
MADRS Pessimistic Thoughts improvement ([3]; IDR n=8, 2 hours): 21 points
MADRS Pessimistic Thoughts percentage improvement ([3]; IDR n=8, 2 hours): 75.00%
MADRS Suicidal Thoughts improvement ([3]; IDR n=8, 2 hours): 8 points
MADRS Suicidal Thoughts aggregated score ([3]; IDR n=8, 2 hours, baseline 11): 3
MADRS Inner Tension aggregated score ([3]; IDR n=8, 2 hours, baseline 26): 11
MADRS Lassitude aggregated score ([3]; IDR n=8, 2 hours, baseline 27): 10
MADRS Pessimistic Thoughts aggregated score ([3]; IDR n=8, 2 hours, baseline 28): 7
MADRS Concentration Difficulties aggregated score ([3]; IDR n=8, 2 hours, baseline 30): 11
MADRS Inability to Feel aggregated score ([3]; IDR n=8, 2 hours, baseline 36): 12
BPRS Anxiety improvement ([3]; IDR n=8, 3 hours): 18 points
BPRS Blunted Affect improvement ([3]; IDR n=8, 3 hours): 4 points
BPRS Emotional Withdrawal improvement ([3]; IDR n=8, 3 hours): 5 points
BPRS Guilt Feelings improvement ([3]; IDR n=8, 3 hours): 20 points
BPRS Tension improvement ([3]; IDR n=8, 3 hours): 5 points
BPRS Emotional Withdrawal aggregated score ([3]; IDR n=8, 3 hours, baseline 13): 8
BPRS Blunted Affect aggregated score ([3]; IDR n=8, 3 hours, baseline 15): 11
BPRS Tension aggregated score ([3]; IDR n=8, 3 hours, baseline 16): 11
BPRS Guilt Feelings aggregated score ([3]; IDR n=8, 3 hours, baseline 34): 14
BPRS Anxiety aggregated score ([3]; IDR n=8, 3 hours, baseline 37): 19
Safety laboratory analyses, vital signs, psychiatric safety assessments, cognitive function ([3]; Part A and Part B): No clinically significant changes
Patients with at least one ADR ([3]; 12 mg): 3 of 4
Patients with at least one ADR ([3]; 18 mg): 3 of 4
Patients with MADRS remission ([3]; Part B, IDR n=8, day seven): 87.5%
Mean MADRS change from baseline, percent ([3]; Part B, IDR, day seven): 76%
Patients achieving remission ([3]; day 1): 8/8
Patients achieving remission ([3]; within 2 h after dosing): 5/8
